{"source": "paper PMC7243115", "about": "“Evaluation of the Anti-Tumor Activity of Small Molecules Targeting Eph/Ephrins in APC ^min/J Mice” (Pharmaceuticals, 2020)", "key": {"APC ^min/J mice": {"system": "APC ^min/J mice", "assay_type": "in vivo", "details": "30 mg/kg oral every other day, 8 weeks", "description": "UniPR129, UniPR139 and UniPR1331 were tested in an animal model of intestinal tumorigenesis, based on the usage of APC ^min/J mice, which spontaneously develop multiple and large adenomas over intestinal tract due to a gene mutation.\n(§1) 5 weeks old C57BL/6J-APC ^min/J male mice were purchased from Jackson Laboratory (Bar Harbor, ME USA). Mice were weighted and randomly subdivided in four groups: • Control group: Oral administration of Methocel 0.5% every other day; • Three treatment groups: oral administration of UniPR129, UniPR139 or UniPR1331 30 mg/kg in Methocel 0.5% every other day.\n(§2) The experiment was carried out for 8 weeks and over this period the weight was monitored once a week. At the end of the experiment, all mice were sacrificed by carbon dioxide inhalation and blood samples were collected via intracardiac […] and used for evaluation of hematological parameters.\nHematological and blood chemistry parameters were undergone to one-way ANOVA to compare control group to treatment groups."}, "[1]": {"system": "adenomas in APC ^min/J mice", "test": "Intestinal tumorigenesis model: number and diameter of adenomas (histological analysis)", "assay_type": "in vivo", "description": "UniPR129, UniPR139 and UniPR1331 were tested in an animal model of intestinal tumorigenesis, based on the usage of APC ^min/J mice, which spontaneously develop multiple and large adenomas over intestinal tract due to a gene mutation. […] Five weeks old mice have been treated with the three compounds at 30 mg/kg dose for 8 weeks every other day following previous observations. The weight of the mice has been monitored from the beginning of the treatment until the end of the study to follow the course of the disease and to detect potentially toxic effects of compounds.\nas §1, §2\nThe whole intestine of all the mice was resected, washed with sterile PBS and fixed with 4% formalin. After 24 h, the intestine was longitudinally divided in 6 portions (1-duodenum, 2-jejunum, 3-ileum, 4-caecum, 5-colon, 6-rectum) and each portion was embedded in paraffin and sectioned at 5 μm with microtome (Leica). Slides were dried at 37 °C for 24 h, then deparaffinized in xylene, rehydrated with decreasing concentration of alcohol and stained with hematoxylin and eosin.\nHistological slides were examined with Nikon Eclipse E800 microscope (Nikon Corporation, Japan) and photographs of sections were taken at 2x with Camera Nikon DIGITAL SIGHT attached to the microscope. The observation of longitudinal sections of the small intestine allowed to determine the distribution and number of adenomatous lesions; four longitudinal sections have been prepared for each segment of small intestine. The microscopic images of the ileum have been subsequently analyzed, using the ImageJ software, to determine the diameter and area of each adenoma."}, "[2]": {"details": "cited from earlier work"}, "[3]": {"details": "of the total number of adenomas in the ileum section"}}, "note": "Where “and” joins values, the source holds several entries; their conditions need not be identical. Equal values may be shown once."}
{"smiles": "C[C@H](CCC(=O)N[C@H](CC(=O)O)Cc1c[nH]c2ccccc12)[C@H]1CC[C@H]2[C@@H]3CC[C@@H]4C[C@H](O)CC[C@]4(C)[C@H]3CC[C@]12C", "note": "[UniPR129]", "values": [{"measurement": "tolerability", "setting": "APC ^min/J mice", "value": "well tolerated"}, {"measurement": "ALT", "setting": "APC ^min/J mice; mean ± SD, n = 7", "value": "23.43 ± 3.78", "unit": "UI"}, {"measurement": "AST/GOT", "setting": "APC ^min/J mice; mean ± SD, n = 7", "value": "108.86 ± 47.11", "unit": "UI"}, {"measurement": "Basophils", "setting": "APC ^min/J mice; mean ± SD, n = 7", "value": "0.00 ± 0.00", "unit": "%"}, {"measurement": "Creatinine", "setting": "APC ^min/J mice; mean ± SD, n = 7", "value": "0.22 ± 0.08", "unit": "mg/dL"}, {"measurement": "Eosinophils", "setting": "APC ^min/J mice; mean ± SD, n = 7", "value": "0.10 ± 0.10", "unit": "%"}, {"measurement": "Glucose", "setting": "APC ^min/J mice; mean ± SD, n = 7", "value": "161.10 ± 21.18", "unit": "mg/dL"}, {"measurement": "Haematocrit", "setting": "APC ^min/J mice; mean ± SD, n = 7", "value": "26.69 ± 6.56", "unit": "%"}, {"measurement": "Haemoglobin", "setting": "APC ^min/J mice; mean ± SD, n = 7", "value": "8.71 ± 2.15", "unit": "g/dL"}, {"measurement": "Lymphocytes", "setting": "APC ^min/J mice; mean ± SD, n = 7", "value": "93.29 ± 6.14", "unit": "%"}, {"measurement": "Mean cellular Volume", "setting": "APC ^min/J mice; mean ± SD, n = 7", "value": "53.87 ± 2.62", "unit": "fL"}, {"measurement": "Mean platelet Volume", "setting": "APC ^min/J mice; mean ± SD, n = 7", "value": "4.91 ± 0.43", "unit": "fL"}, {"measurement": "Monocytes", "setting": "APC ^min/J mice; mean ± SD, n = 7", "value": "0.43 ± 0.31", "unit": "%"}, {"measurement": "Neutrophils", "setting": "APC ^min/J mice; mean ± SD, n = 7", "value": "6.20 ± 6.33", "unit": "%"}, {"measurement": "Platelets", "setting": "APC ^min/J mice; mean ± SD, n = 7", "value": "1191 ± 186.77 103/µL"}, {"measurement": "Red cells", "setting": "APC ^min/J mice; mean ± SD, n = 7", "value": "5.01 ± 1.43 106/µL"}, {"measurement": "Triglycerides", "setting": "APC ^min/J mice; mean ± SD, n = 7", "value": "145.10 ± 38.6", "unit": "mg/dL"}, {"measurement": "White cells", "setting": "APC ^min/J mice; mean ± SD, n = 7", "value": "4.83 ± 0.70 103/μL"}, {"measurement": "efficacy in the model of intestinal tumorigenesis", "setting": "[1]; 30 mg/kg oral every other day, 8 weeks", "value": "the only compound to show positive results"}, {"measurement": "Ileum Adenomas, Mean (number)", "setting": "[1]; 30 mg/kg oral every other day, 8 weeks, n = 7, CTR 13.14", "value": "7.57 ± 2.07 and 7.57"}, {"measurement": "Overall Intestine Adenomas, Mean (number)", "setting": "[1]; 30 mg/kg oral every other day, 8 weeks, n = 7, CTR 19.71", "value": 14.00}, {"measurement": "reduction of the formation of adenomas in the ileum", "setting": "[1]; 30 mg/kg oral, 8 weeks, vs control", "value": 1.6, "unit": "times"}, {"measurement": "mean adenoma diameter in the ileum", "setting": "[1]; 30 mg/kg oral, ± 0.28 (SD), control 0.94 mm ± 0.39 (SD)", "value": 0.71, "unit": "mm"}, {"measurement": "number of medium adenomas (1 to 1.5 mm) in the ileum", "setting": "[1]; 30 mg/kg oral, ± SD, CTR 29 ± 2.5", "value": "11 ± 1.3"}, {"measurement": "Percentage of adenomas, class Large (1.5 to 2 mm)", "setting": "[1]; [3]", "value": 0, "unit": "%"}, {"measurement": "Percentage of adenomas, class Medium (1 to 1.5 mm)", "setting": "[1]; [3]", "value": 21, "unit": "%"}, {"measurement": "Percentage of adenomas, class Small (0.5 to 1 mm)", "setting": "[1]; [3]", "value": 51, "unit": "%"}, {"measurement": "Percentage of adenomas, class Very Large (> 2 mm)", "setting": "[1]; [3]", "value": 0, "unit": "%"}, {"measurement": "Percentage of adenomas, class Very Small (< 0.5 mm)", "setting": "[1]; [3]", "value": 28, "unit": "%"}, {"measurement": "bioavailability after oral administration", "setting": "[2]", "value": "not be bioavailable after oral administration"}, {"measurement": "first pass hepatic metabolism", "setting": "[2]", "value": "extensive first pass hepatic metabolism"}]}
